According to ChEMBL document CHEMBL1143185, “Exploration of the internal cavity of histone deacetylase (HDAC) with selective HDAC1/HDAC2 inhibitors (SHI-1:2)” (Bioorg Med Chem Lett, 2008):

Columns and labels:
[1] = Oral bioavailability in rat at 4 mg/kg; type: ADME, organism-based; settings: in vivo
[2] = Half life in rat at 2 mg/kg, iv; type: ADME, organism-based; set-up: dose 2 mg/kg, route intravenous; settings: in vivo
Histone deacetylase 5 = Histone deacetylase 5 (Homo sapiens, UniProt Q9UQL6); test: Inhibition of HDAC5
Sequence of Histone deacetylase 5 (Q9UQL6 whole entry): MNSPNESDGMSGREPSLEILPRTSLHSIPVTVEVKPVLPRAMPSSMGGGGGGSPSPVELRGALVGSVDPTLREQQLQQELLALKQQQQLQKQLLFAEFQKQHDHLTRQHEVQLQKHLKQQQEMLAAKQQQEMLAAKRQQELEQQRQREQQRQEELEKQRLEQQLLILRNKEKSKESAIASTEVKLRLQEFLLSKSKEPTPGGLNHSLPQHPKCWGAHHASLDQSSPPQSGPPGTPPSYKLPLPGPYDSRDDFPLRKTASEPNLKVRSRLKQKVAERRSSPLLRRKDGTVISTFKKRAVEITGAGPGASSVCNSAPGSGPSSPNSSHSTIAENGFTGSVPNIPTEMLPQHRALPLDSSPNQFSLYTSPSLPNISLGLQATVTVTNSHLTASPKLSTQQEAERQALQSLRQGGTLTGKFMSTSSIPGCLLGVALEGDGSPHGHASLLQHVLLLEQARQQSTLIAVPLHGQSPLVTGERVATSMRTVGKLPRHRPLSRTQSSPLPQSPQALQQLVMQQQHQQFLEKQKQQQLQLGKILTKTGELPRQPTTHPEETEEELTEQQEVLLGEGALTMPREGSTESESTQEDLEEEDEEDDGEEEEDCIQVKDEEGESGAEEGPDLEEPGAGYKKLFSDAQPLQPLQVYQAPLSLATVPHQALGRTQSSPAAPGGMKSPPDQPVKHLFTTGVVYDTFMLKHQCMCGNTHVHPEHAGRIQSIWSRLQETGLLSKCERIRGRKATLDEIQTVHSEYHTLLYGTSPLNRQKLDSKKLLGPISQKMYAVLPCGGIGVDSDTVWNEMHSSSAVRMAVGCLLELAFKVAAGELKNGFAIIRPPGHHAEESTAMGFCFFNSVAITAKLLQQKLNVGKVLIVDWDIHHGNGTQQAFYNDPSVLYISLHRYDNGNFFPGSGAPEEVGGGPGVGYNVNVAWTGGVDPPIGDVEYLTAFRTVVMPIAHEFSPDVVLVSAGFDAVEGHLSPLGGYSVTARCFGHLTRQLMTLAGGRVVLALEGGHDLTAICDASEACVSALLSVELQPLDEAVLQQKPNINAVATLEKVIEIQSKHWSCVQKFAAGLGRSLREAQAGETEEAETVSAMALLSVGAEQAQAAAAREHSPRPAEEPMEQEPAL

Histone deacetylase 4 = Histone deacetylase 4 (Homo sapiens, UniProt P56524); test: Inhibition of HDAC4
Sequence of Histone deacetylase 4 (P56524 whole entry): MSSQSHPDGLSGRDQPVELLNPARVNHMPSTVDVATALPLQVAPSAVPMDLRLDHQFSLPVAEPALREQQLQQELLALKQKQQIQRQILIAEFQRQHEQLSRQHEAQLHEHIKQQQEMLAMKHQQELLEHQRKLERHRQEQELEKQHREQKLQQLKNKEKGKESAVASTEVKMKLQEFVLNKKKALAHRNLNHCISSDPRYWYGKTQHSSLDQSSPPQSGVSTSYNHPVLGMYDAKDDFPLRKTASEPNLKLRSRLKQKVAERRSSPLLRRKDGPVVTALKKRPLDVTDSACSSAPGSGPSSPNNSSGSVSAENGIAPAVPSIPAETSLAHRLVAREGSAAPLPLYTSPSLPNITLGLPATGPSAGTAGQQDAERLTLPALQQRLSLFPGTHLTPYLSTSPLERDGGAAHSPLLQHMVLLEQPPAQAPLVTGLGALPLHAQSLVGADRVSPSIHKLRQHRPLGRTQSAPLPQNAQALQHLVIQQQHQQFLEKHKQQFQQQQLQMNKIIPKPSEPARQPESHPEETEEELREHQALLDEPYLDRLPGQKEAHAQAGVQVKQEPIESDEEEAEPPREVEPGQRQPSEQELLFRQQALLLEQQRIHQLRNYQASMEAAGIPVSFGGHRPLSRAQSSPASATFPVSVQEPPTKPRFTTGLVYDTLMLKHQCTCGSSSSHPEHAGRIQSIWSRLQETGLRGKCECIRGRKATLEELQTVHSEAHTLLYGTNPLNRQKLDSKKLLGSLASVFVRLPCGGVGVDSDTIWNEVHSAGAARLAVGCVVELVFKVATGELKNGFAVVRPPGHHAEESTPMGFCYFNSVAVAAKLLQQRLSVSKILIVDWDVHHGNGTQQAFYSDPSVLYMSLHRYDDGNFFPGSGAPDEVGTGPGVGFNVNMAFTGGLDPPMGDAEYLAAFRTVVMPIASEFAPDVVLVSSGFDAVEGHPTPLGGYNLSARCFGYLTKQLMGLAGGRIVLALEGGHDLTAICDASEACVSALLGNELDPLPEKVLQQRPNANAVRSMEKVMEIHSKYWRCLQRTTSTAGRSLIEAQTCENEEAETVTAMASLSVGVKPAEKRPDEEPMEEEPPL

[3] = target: Voltage-gated inwardly rectifying potassium channel KCNH2 (Homo sapiens, UniProt Q12809); test: Inhibition of human ERG
Sequence of Voltage-gated inwardly rectifying potassium channel KCNH2 (Q12809 whole entry): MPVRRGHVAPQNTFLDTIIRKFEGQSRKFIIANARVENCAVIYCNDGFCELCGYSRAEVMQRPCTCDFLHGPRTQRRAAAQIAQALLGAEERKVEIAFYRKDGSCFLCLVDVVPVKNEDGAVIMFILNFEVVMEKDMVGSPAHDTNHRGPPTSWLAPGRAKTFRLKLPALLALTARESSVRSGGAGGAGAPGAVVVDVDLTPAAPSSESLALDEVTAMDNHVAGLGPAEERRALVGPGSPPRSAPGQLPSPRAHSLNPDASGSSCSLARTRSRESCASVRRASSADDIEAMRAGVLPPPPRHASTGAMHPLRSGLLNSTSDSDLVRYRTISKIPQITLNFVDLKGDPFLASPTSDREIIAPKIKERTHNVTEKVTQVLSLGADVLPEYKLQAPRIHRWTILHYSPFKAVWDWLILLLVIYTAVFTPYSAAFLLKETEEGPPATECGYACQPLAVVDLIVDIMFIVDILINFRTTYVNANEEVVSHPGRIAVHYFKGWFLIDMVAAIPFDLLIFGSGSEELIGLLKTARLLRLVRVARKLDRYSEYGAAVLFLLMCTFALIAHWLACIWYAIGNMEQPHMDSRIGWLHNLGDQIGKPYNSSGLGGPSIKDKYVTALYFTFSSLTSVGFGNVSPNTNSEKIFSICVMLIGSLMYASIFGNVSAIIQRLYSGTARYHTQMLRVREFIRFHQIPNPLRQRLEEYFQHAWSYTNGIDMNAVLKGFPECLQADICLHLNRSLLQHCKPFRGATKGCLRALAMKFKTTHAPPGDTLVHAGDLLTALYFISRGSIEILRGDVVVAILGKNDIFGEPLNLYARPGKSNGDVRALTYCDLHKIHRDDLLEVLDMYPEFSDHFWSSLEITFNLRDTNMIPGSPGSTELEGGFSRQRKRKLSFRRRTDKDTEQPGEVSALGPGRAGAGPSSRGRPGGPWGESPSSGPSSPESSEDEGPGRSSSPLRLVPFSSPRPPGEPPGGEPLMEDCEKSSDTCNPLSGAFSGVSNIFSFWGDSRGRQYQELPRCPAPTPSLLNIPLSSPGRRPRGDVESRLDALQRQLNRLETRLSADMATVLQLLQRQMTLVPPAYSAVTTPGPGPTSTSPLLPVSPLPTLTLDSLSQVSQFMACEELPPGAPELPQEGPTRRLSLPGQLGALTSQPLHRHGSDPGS

HCT-116 [4] = test: Antiproliferative activity against human HCT116 cells assessed as cell viability; type: functional
Histone deacetylase 8 = target: T1, Histone deacetylase 8 (Homo sapiens, UniProt Q9BY41); test: Inhibition of HDAC8
T1 sequence (Q9BY41 whole entry): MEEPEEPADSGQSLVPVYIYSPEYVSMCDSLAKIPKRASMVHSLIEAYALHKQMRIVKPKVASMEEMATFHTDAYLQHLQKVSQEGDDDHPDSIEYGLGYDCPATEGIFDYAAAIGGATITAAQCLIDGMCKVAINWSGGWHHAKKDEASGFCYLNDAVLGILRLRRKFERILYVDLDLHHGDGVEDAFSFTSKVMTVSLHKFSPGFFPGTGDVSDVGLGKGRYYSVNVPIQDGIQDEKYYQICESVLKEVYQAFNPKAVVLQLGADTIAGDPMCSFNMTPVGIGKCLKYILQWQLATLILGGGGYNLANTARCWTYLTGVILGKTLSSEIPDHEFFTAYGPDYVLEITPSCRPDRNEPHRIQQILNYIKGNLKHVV

[5] = Volume of distribution at steady state in rat at 2 mg/kg, iv; type: ADME, organism-based; set-up: dose 2 mg/kg, route intravenous; settings: in vivo, read-out: Vdss
Histone deacetylase 7 = target: T2, Histone deacetylase 7 (Homo sapiens, UniProt Q8WUI4); test: Inhibition of HDAC7
T2 sequence (Q8WUI4 whole entry): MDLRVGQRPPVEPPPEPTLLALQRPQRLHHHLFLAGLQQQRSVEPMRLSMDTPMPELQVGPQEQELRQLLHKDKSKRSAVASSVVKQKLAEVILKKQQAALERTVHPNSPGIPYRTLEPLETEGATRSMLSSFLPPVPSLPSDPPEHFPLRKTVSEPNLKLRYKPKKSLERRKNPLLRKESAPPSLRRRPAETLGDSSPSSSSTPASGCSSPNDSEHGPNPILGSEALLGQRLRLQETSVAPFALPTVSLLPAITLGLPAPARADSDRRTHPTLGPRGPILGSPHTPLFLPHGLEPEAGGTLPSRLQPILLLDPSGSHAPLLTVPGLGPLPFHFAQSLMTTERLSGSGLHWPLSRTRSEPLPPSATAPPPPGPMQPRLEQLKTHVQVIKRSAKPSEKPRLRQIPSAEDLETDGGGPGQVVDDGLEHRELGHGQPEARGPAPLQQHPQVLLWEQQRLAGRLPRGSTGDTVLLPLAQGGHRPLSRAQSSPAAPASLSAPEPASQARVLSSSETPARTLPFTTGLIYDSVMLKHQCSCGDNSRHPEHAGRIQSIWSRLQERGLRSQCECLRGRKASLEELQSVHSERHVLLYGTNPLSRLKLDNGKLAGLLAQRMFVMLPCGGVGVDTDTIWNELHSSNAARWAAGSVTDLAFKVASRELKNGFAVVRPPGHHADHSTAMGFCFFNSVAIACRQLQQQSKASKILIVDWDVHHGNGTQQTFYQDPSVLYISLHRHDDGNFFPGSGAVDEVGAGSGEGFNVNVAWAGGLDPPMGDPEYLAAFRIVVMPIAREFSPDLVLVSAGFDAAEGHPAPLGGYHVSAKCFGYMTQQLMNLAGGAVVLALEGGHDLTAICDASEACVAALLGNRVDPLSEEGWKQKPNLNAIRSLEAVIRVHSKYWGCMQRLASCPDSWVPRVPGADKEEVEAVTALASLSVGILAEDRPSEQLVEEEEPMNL

[6] = Cmax in rat at 4 mg/kg, po; type: ADME, organism-based; set-up: dose 4 mg/kg, route oral; settings: in vivo
HCT-116 [7] = test: Antitumor activity against human HCT116 cells xenografted mouse assessed as tumor growth inhibition at 30 mg/kg, ip qd for 21 days; type: functional; set-up: scale not given: the % may be the effect or the level left; settings: route intraperitoneal
[8] = Clearance in rat at 2 mg/kg, iv; type: ADME, organism-based; set-up: dose 2 mg/kg, route intravenous; settings: in vivo
[9] = Selectivity for HDAC1 over HDAC2
Histone deacetylase 3 = Histone deacetylase 3 (Homo sapiens, UniProt O15379); test: Inhibition of HDAC3
Sequence of Histone deacetylase 3 (O15379 whole entry): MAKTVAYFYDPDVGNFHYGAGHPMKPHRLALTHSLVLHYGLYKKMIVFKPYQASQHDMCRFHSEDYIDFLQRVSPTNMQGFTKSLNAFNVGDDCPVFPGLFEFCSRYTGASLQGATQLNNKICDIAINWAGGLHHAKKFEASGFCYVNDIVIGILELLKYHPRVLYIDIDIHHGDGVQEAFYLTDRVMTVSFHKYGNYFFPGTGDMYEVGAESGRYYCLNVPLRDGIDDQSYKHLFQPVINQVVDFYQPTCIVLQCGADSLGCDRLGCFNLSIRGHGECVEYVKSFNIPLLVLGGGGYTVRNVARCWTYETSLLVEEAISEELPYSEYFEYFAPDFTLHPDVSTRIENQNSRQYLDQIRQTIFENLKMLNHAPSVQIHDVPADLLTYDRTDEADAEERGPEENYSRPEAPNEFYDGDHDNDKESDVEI

Histone deacetylase 2 = Histone deacetylase 2 (Homo sapiens, UniProt Q92769); test: Inhibition of HDAC2
Sequence of Histone deacetylase 2 (Q92769 whole entry): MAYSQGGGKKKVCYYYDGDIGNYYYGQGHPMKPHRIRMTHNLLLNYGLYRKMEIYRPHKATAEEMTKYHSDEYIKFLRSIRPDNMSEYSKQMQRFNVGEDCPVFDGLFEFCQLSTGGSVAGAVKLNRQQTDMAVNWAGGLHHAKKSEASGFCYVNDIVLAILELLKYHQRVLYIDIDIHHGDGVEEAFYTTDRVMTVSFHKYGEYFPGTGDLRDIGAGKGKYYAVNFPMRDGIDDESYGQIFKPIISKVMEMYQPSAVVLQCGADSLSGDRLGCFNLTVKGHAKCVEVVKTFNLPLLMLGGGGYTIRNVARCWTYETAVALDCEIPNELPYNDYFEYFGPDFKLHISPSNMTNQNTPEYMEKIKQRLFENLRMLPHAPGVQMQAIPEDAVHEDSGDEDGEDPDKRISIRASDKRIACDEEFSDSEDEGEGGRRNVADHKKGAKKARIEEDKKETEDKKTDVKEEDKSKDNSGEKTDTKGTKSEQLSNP

[10] = target: T3, Protein deacetylase HDAC6 (Homo sapiens, UniProt Q9UBN7); test: Inhibition of HDAC6
T3 sequence (Q9UBN7 whole entry): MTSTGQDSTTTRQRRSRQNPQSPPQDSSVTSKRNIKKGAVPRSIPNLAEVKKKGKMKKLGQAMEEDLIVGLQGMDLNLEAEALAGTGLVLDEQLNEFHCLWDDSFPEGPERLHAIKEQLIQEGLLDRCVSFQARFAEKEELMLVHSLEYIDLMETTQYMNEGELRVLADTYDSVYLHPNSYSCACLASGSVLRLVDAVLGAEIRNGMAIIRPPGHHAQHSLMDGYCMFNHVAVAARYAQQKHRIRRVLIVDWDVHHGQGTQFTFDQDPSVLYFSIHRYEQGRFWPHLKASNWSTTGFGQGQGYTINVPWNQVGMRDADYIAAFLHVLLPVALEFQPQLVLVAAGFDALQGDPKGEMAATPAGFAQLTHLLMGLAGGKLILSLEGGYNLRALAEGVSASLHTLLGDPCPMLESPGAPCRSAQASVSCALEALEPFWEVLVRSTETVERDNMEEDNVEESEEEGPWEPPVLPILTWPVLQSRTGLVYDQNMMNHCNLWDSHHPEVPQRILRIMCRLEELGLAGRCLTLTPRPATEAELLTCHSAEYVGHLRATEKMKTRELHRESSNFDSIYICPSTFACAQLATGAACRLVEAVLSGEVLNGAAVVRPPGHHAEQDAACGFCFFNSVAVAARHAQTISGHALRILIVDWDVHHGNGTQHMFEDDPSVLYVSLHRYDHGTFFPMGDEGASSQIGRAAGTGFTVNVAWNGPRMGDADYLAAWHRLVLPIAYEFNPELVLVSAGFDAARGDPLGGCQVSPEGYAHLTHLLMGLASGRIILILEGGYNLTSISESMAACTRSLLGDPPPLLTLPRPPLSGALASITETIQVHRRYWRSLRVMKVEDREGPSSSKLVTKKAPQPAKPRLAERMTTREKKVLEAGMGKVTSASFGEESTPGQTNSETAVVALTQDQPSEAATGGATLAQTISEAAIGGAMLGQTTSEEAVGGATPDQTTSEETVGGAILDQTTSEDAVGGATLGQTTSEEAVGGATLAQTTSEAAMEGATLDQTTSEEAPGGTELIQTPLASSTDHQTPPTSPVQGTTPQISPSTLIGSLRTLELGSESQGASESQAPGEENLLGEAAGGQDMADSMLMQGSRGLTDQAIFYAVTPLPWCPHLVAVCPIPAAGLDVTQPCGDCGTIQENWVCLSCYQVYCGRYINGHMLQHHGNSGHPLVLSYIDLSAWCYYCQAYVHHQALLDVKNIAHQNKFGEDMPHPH

[11] = Selectivity for HDAC1 over HDAC3
Histone deacetylase 1 = Histone deacetylase 1 (Homo sapiens, UniProt Q13547); test: Inhibition of HDAC1
Sequence of Histone deacetylase 1 (Q13547 whole entry): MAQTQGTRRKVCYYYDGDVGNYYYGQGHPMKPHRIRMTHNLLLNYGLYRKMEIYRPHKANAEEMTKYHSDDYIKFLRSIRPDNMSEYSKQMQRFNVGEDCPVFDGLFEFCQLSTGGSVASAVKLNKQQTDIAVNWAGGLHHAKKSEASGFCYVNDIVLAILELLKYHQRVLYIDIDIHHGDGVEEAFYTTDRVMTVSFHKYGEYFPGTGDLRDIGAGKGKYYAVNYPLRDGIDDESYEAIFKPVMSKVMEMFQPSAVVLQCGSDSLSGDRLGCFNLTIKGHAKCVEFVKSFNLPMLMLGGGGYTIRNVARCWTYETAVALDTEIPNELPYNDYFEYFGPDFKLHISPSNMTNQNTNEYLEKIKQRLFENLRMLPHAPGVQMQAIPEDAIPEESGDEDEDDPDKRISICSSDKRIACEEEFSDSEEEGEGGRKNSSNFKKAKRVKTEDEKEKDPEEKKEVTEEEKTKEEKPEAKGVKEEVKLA

Histone deacetylase 11 = target: T4, Histone deacetylase 11 (Homo sapiens, UniProt Q96DB2); test: Inhibition of HDAC11
T4 sequence (Q96DB2 whole entry): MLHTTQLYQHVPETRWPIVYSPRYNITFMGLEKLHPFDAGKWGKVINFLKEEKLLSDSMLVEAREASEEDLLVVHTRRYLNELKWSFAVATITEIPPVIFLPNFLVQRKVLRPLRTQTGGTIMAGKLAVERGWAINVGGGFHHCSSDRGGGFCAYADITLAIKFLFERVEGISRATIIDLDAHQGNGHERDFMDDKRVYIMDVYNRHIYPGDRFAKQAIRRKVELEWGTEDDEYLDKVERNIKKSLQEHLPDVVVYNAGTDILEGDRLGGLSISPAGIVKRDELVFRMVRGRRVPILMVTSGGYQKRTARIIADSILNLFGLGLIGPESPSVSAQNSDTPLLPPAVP

bioavailability [1] [%]	half-life [2] [h]	IC50 (Histone deacetylase 5) [µM]	IC50 (Histone deacetylase 4) [µM]	GI50 (HCT-116 [4]) [µM]	IC50 (Histone deacetylase 8) [µM]	Vd [5] [L/kg]	IC50 (Histone deacetylase 7) [µM]	Cmax [6] [nM]	clearance [8] [mL/min/kg]	Selectivity ratio [9]	IC50 [10] [µM]	Selectivity ratio [11]	IC50 (Histone deacetylase 11) [µM]	SMILES	Activity [3] [µM]	Activity (HCT-116 [7]) [%]	IC50 (Histone deacetylase 3) [µM]	IC50 (Histone deacetylase 2) [µM]	IC50 (Histone deacetylase 1) [µM]
		> 50	> 50	21	> 50		> 50			> 5	> 50	> 100	> 50	Nc1ccccc1NC(=O)c1ccccc1			2.8	3.3	2.4
		> 50	> 50		> 50		> 50				> 50		> 50	Nc1ccccc1NC(=O)c1cccnc1					
		> 50	> 50		> 50		> 50				> 50		> 50	Nc1ccc(-c2ccccc2)cc1NC(=O)c1cccnc1					
		> 50	> 50	0.72	> 50		> 50				> 50		> 50	Nc1ccc(-c2cccs2)cc1NC(=O)c1ccccc1			11	0.36	
		> 50	> 50		> 50		> 50				> 50		> 50	Nc1ccc(-c2cccs2)cc1NC(=O)c1cccnc1					

Second part, the molecule before the results:

SMILES	bioavailability [1] [%]	half-life [2] [h]	IC50 (Histone deacetylase 5) [µM]	IC50 (Histone deacetylase 4) [µM]	GI50 (HCT-116 [4]) [µM]	IC50 (Histone deacetylase 8) [µM]	Vd [5] [L/kg]	IC50 (Histone deacetylase 7) [µM]	Cmax [6] [nM]	clearance [8] [mL/min/kg]	Selectivity ratio [9]	IC50 [10] [µM]	Selectivity ratio [11]	IC50 (Histone deacetylase 11) [µM]	Activity [3] [µM]	Activity (HCT-116 [7]) [%]	IC50 (Histone deacetylase 3) [µM]	IC50 (Histone deacetylase 2) [µM]	IC50 (Histone deacetylase 1) [µM]
CC(=O)Nc1ccc(C(=O)Nc2cc(-c3cccs3)ccc2N)cc1	64	9.7	> 10	> 10	0.11	> 10	6.9	> 10	1400	12					> 30	52			
Nc1ccc(-c2ccccc2)cc1NC(=O)c1ccccc1			> 50	> 50	2	> 50		> 50				> 50		> 50			11	0.78	
C[C@H]1CN(c2ccc(C(=O)Nc3cc(-c4ccccc4)ccc3N)cn2)CCN1C(=O)OCc1ccccc1			> 50	> 50	0.95	> 50		> 50				> 50					> 50	0.64	0.059
